The series concerns the target T1, salmon calcitonin (sCT) (Oncorhynchus keta, UniProt P01263).
T1 construct: Salmon calcitonin is a 32-amino acid polypeptide hormone; purchased Therapeomic Inc., Switzerland
T1 sequence (P01263 83-114 limits assumed): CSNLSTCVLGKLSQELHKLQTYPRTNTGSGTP
In kind it is physicochemical. Particulars: 10 mM sodium citrate buffer pH 6, 1:1 molar ratio; for slope of aggregation curve: Nile red fluorescence at 620 nm; for lag time of aggregation: OD at 450 nm. The procedure:
Salmon calcitonin (Therapeomic Inc., Switzerland) in a final concentration of 2.5 mg/ml per well with and without the respective excipients to be tested, i.e. non-conjugated mPEG-amines and non-conjugated hydrophobic headgroups were prepared in 4 different buffer systems: 10 mM sodium acetate pH 5, 10 mM sodium citrate pH 5, 10 mM sodium citrate pH 6, 10 mM sodium phosphate buffer pH 8. Samples are prepared two times and nile red in a final concentration of 1 μM is added to one of each. Aggregation is followed in UV-transparent 96-well plates or 384-well Costar® plates from Corning (Corning Life Sciences, Schiphol, Netherlands) by a microplate reader (Tecan Safire™ microplate reader, Tecan Group Ltd, Männedorf, Switzerland) by monitoring turbidity, nile red fluorescence and intrinsic fluorescence of the protein/peptide drug or the hydrophobic head-group. After finishing the aggregation kinetics, final spectra of nile red fluorescence, UV and protein/peptide drug or hydrophobic head group fluorescence were measured.
Aggregation was checked in absence of any excipient, in presence of equimolar amounts of dansylamide, mPEG-amine 2 kD and dansyl-mPEG 2 kD, respectively.

Data on one substance can be found in patent US20120219538A1, “STABILIZED PROTEIN FORMULATIONS AND USE THEREOF” (THERAPEOMIC AG, priority 2009, published 2012).

Like-named read-outs stand apart in the source and are kept apart here.

As for salmon calcitonin [sCT], the “slope of aggregation curve” value runs as follows: (Table 2) 1843 a.u./hrs; (Table 3, higher detector sensitivity) 5546 a.u./hrs. The “lag time of aggregation” value by setting is: (Table 2) 3.5 h; (Table 3) 4.2 h. Also, the “Nile red fluorescence at 620 nm” value is recorded as 1058 (Table 2, time 0 hrs); 18581 (Table 2, time 9.5 hrs); 27276 (Table 2, time 20 hrs); 25328 (Table 2, time 100 hrs); 24729 (Table 2, time 166 hrs); 4560 (Table 3, time 0 hrs, higher sensitivity of the fluorescence detector than Table 2). For the same substance, the “Nile red fluorescence at 620 nm” value reads like this: (Table 3, time 5 hrs, higher sensitivity of the fluorescence detector than Table 2) 38483; (Table 3, time 10 hrs, higher sensitivity of the fluorescence detector than Table 2) 61019; (Table 3, time 13.5 hrs, higher sensitivity of the fluorescence detector than Table 2) above 65000; (Table 3, time 20 hrs, higher sensitivity of the fluorescence detector than Table 2) above 65000. Moreover, the “OD at 450 nm” value runs as follows: (Table 2, time 0 hrs) 0.10; (Table 2, time 9.5 hrs) 0.22; (Table 2, time 20 hrs) 0.63; (Table 2, time 100 hrs) 0.68; (Table 2, time 166 hrs) 0.64; (Table 3, time 0 hrs) 0.11. Also, the “OD at 450 nm” value by setting is: (Table 3, time 6.2 hrs) 0.15; (Table 3, time 10 hrs) 0.22; (Table 3, time 30.5 hrs) 0.49; (Table 3, time 140 hrs) 0.56.
